Where only a bound is given, the exact number is not on record here.

The target in one experiment is Human VPS34 (Homo sapiens (Human), UniProt Q8NEB9). Put plainly: Human VPS34 enzyme assay (Adapta TR-FRET). The class given is biochemical. To be noted: IC50 range class. A general note: Time-resolved FRET reads energy transfer from a long-lived donor to a nearby acceptor.
Sequence of Human VPS34 (Q8NEB9 whole entry): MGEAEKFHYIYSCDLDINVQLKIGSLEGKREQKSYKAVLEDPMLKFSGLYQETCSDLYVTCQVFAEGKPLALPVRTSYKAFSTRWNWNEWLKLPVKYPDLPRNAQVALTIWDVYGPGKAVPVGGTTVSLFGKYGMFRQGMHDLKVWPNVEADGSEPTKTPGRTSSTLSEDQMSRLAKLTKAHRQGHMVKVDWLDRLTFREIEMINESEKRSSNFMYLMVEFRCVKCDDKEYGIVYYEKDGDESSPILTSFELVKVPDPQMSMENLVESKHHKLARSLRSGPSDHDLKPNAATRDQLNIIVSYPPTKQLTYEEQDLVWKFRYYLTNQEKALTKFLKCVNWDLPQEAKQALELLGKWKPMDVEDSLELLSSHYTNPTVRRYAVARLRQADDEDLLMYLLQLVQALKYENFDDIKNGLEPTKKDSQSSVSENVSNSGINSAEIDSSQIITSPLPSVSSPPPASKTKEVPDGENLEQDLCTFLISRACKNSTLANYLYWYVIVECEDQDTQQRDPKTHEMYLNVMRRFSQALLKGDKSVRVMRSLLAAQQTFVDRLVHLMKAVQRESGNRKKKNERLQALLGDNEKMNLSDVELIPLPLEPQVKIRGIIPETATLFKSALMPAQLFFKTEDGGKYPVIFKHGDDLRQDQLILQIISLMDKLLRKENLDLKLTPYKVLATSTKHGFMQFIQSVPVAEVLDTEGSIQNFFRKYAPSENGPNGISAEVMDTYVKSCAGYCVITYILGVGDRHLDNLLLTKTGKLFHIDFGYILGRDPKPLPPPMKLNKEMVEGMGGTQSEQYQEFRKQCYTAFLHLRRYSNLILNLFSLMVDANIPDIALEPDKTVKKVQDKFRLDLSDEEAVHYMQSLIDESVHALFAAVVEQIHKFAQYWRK
`Cc1cccc(Nc2cc(-c3cnc(C)c(NS(=O)(=O)c4ccc(F)cc4F)c3)ccn2)n1` [Compound I-276, 2,4-difluoro-N-{6-methyl-2′-[(6-methylpyridin-2-yl)amino]-3,4′-bipyridin-5-yl}benzenesulfonamide] displayed an IC50 below 10 nM.

The experiment is the same for the next values; noted with them: compound concentration 1.11 μM.
With `CCc1c(-c2ccnc(Nc3ccnc(C)n3)c2)cnc(Cl)c1NS(=O)(=O)c1ccc(F)cc1F` [Compound I-259, N-{6-chloro-4-ethyl-2′-[(2-methylpyrimidin-4-yl)amino]-3,4′-bipyridin-5-yl}-2,4-difluorobenzene sulfonamide], the “Percent Inhibition” value was 79%.
As for `Cc1nccc(Nc2cc(-c3cnc(N)c(C(=O)N(C)C45CC(C4)C5)c3)ccn2)n1` [Compound I-277, 6-amino-N-(bicyclo[1.1.1]pent-1-yl)-N-methyl-2′-[(2-methylpyrimidin-4-yl)amino]-3,4′-bipyridine-5-carboxamide], the “Percent Inhibition” value was found to be 100%.
Same read-out and setting: as for `Cc1c(-c2ccnc(N)c2)cnc(Cl)c1NS(=O)(=O)c1ccc(F)cc1F` [Compound I-287, N-(2′-amino-6-chloro-4-methyl-3,4′-bipyridin-5-yl)-2,4-difluorobenzenesulfonamide], the figure is 91%.

The experiment is the same for the next values; noted with them: compound concentration 1.11 μM; read-out: Percent Inhibition.
On to `COC(=O)Nc1cc(-c2cnc(Cl)c(NS(=O)(=O)c3ccc(F)cc3F)c2C)ccn1` [Compound I-255, methyl (6-chloro-5-{[(2,4-difluorophenyl)sulfonyl]amino}-4-methyl-3,4′-bipyridin-2′-yl)carbamate], for which the inhibition at 1.11 µM was 95%.
Regarding `CNc1c(Cl)ncc(-c2ccnc(Nc3ccnc(C)n3)c2)c1C` [Compound I-256, 6-chloro-N~5~,4-dimethyl-N~2~′-(2-methylpyrimidin-4-yl)-3,4′-bipyridine-2′,5-diamine], the inhibition at 1.11 µM came out at 94%.
For `CC(=O)Nc1cc(-c2cnc(C)c(NS(=O)(=O)N3CCC3)c2)ccn1` [Compound I-257, N-{5-[(azetidin-1-ylsulfonyl)amino]-6-methyl-3,4′-bipyridin-2′-yl}acetamide], the inhibition at 1.11 µM is above 99%.
Same read-out and setting: in the case of `CC(=O)Nc1cc(-c2cc(NS(=O)(=O)c3ccc(F)cc3F)c(C)[n+]([O-])c2)ccn1` [Compound I-258, N-[4-(5-{[(2,4-difluorophenyl)sulfonyl]amino}-6-methyl-1-oxidopyridin-3-yl)pyridin-2-yl]acetamide] it was 88%; in that of `CC(=O)Nc1cc(-c2cnc(C)c(NS(=O)(=O)N(C)C)c2C)ccn1` [Compound I-260, N-{5-[(dimethylsulfamoyl)amino]-4,6-dimethyl-3,4′-bipyridin-2′-yl}acetamide], 91%; in that of `Cc1nccc(Nc2cc(-c3cnc(C)c(C(=O)N4CCCCC4)c3)ccn2)n1` [Compound I-262, {6-methyl-2′-[(2-methylpyrimidin-4-yl)amino]-3,4′-bipyridin-5-yl}(piperidin-1-yl)methanone], 81%.
On the same count and under the same terms, in the case of `Cc1ncc(-c2ccnc(-n3cnc4c(C)nccc43)c2)cc1NS(=O)(=O)N(C)C` [Compound I-263, N,N-dimethyl-N-[6-methyl-2′-(4-methyl-1H-imidazo[4,5-c]pyridin-1-yl)-3,4′-bipyridin-5-yl]sulfuric diamide] it was 53%; in that of `Cc1c(-c2ccnc(Nc3ccnc(-c4ccccc4)n3)c2)cnc(Cl)c1NS(=O)(=O)c1ccc(F)cc1F` [Compound I-264, N-{6-chloro-4-methyl-2′-[(2-phenylpyrimidin-4-yl)amino]-3,4′-bipyridin-5-yl}-2,4-difluorobenzenesulfonamide], 100%.
The same measure, in the same setting: as for `Cc1ncc(-c2ccnc(Nc3ncccn3)c2)cc1NS(=O)(=O)c1ccc(F)cc1F` [Compound I-265, 2,4-difluoro-N-[6-methyl-2′-(pyrimidin-2-ylamino)-3,4′-bipyridin-5-yl]benzenesulfonamide], the figure is above 99%; as for `Cc1nccc(Nc2cc(-c3cnc(C)c(C(=O)N(C)C)c3)ccn2)n1` [Compound I-266, N,N,6-trimethyl-2′-[(2-methylpyrimidin-4-yl)amino]-3,4′-bipyridine-5-carboxamide], 100%; as for `Cc1ncc(-c2ccnc(NC(=O)C3CC3(F)F)c2)cc1NS(=O)(=O)c1ccc(F)cc1F` (centres unmarked) [Compound I-267a, N-(5-{[(2,4-difluorophenyl)sulfonyl]amino}-6-methyl-3,4′-bipyridin-2′-yl)-2,2-difluorocyclopropanecarboxamide], 97%.
Regarding `COc1ncc(-c2ccnc(NC(C)=O)c2)c(C)c1NS(=O)(=O)N(C)C` [Compound I-268, N-{5-[(dimethylsulfamoyl)amino]-6-methoxy-4-methyl-3,4′-bipyridin-2′-yl}acetamide], the inhibition at 1.11 µM was 100%.
As to `CC(=O)Nc1cc(-c2cnc(C)c(NS(=O)(=O)N3CCN(C)CC3)c2)ccn1` [Compound I-269, N-(6-methyl-5-{[(4-methylpiperazin-1-yl)sulfonyl]amino}-3,4′-bipyridin-2′-yl)acetamide], the inhibition at 1.11 µM is above 99%.
Still for that read-out and setting: in the case of `Cc1ncc(-c2ccnc(Nc3nc4ccccc4s3)c2)cc1NS(=O)(=O)c1ccc(F)cc1F` [Compound I-271, N-[2′-(1,3-benzothiazol-2-ylamino)-6-methyl-3,4′-bipyridin-5-yl]-2,4-difluorobenzenesulfonamide] it was 91%; in that of `Cc1cc(Nc2cc(-c3cnc(Cl)c(NS(=O)(=O)c4ccc(F)cc4F)c3C)ccn2)ccn1` [Compound I-272, N-{6-chloro-4-methyl-2′-[(2-methylpyridin-4-yl)amino]-3,4′-bipyridin-5-yl}-2,4-difluorobenzenesulfonamide], above 99%.
Same read-out and setting: in the case of `CCN(C)S(=O)(=O)Nc1cc(-c2ccnc(NC(C)=O)c2)cnc1C` [Compound I-273, N-(5-{[ethyl(methyl)sulfamoyl]amino}-6-methyl-3,4′-bipyridin-2′-yl)acetamide] it was above 99%; in that of `CC(=O)Nc1cc(-c2cnc(C)c(NS(=O)(=O)N3CCCC3)c2)ccn1` [Compound I-274, N-{6-methyl-5-[(pyrrolidin-1-ylsulfonyl)amino]-3,4′-bipyridin-2′-yl}acetamide], above 99%.
Turning to `Cc1nccc(Nc2cc(-c3cnc(C)c(C(=O)N(C)C45CC(C4)C5)c3)ccn2)n1` [Compound I-275, N-(bicyclo[1.1.1]pent-1-yl)-N,6-dimethyl-2′-[(2-methylpyrimidin-4-yl)amino]-3,4′-bipyridine-5-carboxamide], the inhibition at 1.11 µM is above 99%.
Regarding `Cc1cccc(Nc2cc(-c3cnc(C)c(NS(=O)(=O)c4ccc(F)cc4F)c3)ccn2)n1` [Compound I-276, 2,4-difluoro-N-{6-methyl-2′-[(6-methylpyridin-2-yl)amino]-3,4′-bipyridin-5-yl}benzenesulfonamide], the inhibition at 1.11 µM came to 96%.
Same read-out and setting: in the case of `CCc1c(-c2ccnc(NC(=O)C3CC3)c2)cnc(Cl)c1NS(=O)(=O)c1ccc(F)cc1F` [Compound I-278, N-(6-chloro-5-{[(2,4-difluorophenyl)sulfonyl]amino}-4-ethyl-3,4′-bipyridin-2′-yl)cyclopropanecarboxamide] it was above 99%.
Same read-out and setting: as for `Cc1nccc(Nc2cc(-c3cnc(O)c(S(=O)(=O)NC4CCC4)c3)ccn2)n1` [Compound I-279, N-cyclobutyl-6-hydroxy-2′-[(2-methylpyrimidin-4-yl)amino]-3,4′-bipyridine-5-sulfonamide], the figure is 93%; as for `Cc1nccc(Nc2cc(-c3cnc(C)c(C(N)=O)c3)ccn2)n1` [Compound I-280, 6-methyl-2′-[(2-methylpyrimidin-4-yl)amino]-3,4′-bipyridine-5-carboxamide], 83%.
For the compound `Cc1ncc(-c2ccnc(N)c2)cc1NS(=O)(=O)N(C)C` [Compound I-281, N′-(2′-amino-6-methyl-3,4′-bipyridin-5-yl)-N,N-dimethylsulfuric diamide], the inhibition at 1.11 µM was found to be 40%.
The same measure, in the same setting: in the case of `Cc1c(-c2ccnc(Nc3ccncn3)c2)cnc(Cl)c1NS(=O)(=O)c1ccc(F)cc1F` [Compound I-282, N-[6-chloro-4-methyl-2′-(pyrimidin-4-ylamino)-3,4′-bipyridin-5-yl]-2,4-difluorobenzenesulfonamide] it was 94%; in that of `CC(=O)Nc1cc(-c2cnc(N(C)C)c(C(=O)NC34CC(C3)C4)c2)ccn1` [Compound I-283, 2′-Acetamido-N-(bicyclo[1.1.1]pent-1-yl)-6-(dimethylamino)-3,4′-bipyridine-5-carboxamide], above 99%; in that of `CN(C)c1ncc(-c2ccnc(Nc3ccncn3)c2)cc1C(=O)N(C)C12CC(C1)C2` [Compound I-284, N-(bicyclo[1.1.1]pent-1-yl)-6-(dimethylamino)-N-methyl-2′-(pyrimidin-4-ylamino)-3,4′-bipyridine-5-carboxamide], above 99%.
Same read-out and setting: as for `Cc1nccc(Nc2cc(-c3cnc(C)c(C(=O)NCC4CC4)c3)ccn2)n1` [Compound I-285, N-(cyclopropylmethyl)-6-methyl-2′-((2-methylpyrimidin-4-yl)amino)-[3,4′-bipyridine]-5-carboxamide], the figure is 85%; as for `Cc1nccc(Nc2cc(-c3cnc(C)c(NS(=O)(=O)N(C)C)c3)ccn2)n1` [Compound I-286, N,N-dimethyl-N-{6-methyl-2′-[(2-methylpyrimidin-4-yl)amino]-3,4′-bipyridin-5-yl}sulfuric diamide], above 99%.
For the compound `Cc1nccc(Nc2cc(-c3cnc(C)c(N4CCCN(C)S4(=O)=O)c3)ccn2)n1` [Compound I-288, 6-methyl-5-(6-methyl-1,1-dioxido-1,2,6-thiadiazinan-2-yl)-N-(2-methylpyrimidin-4-yl)-3,4′-bipyridin-2′-amine], the inhibition at 1.11 µM is 91%.
With `Cc1nc(Nc2cc(-c3cnc(C)c(NS(=O)(=O)c4ccc(F)cc4F)c3)ccn2)ccc1C#N` [Compound I-289, N-{2′-[(5-cyano-6-methylpyridin-2-yl)amino]-6-methyl-3,4′-bipyridin-5-yl}-2,4-difluorobenzene sulfonamide], the inhibition at 1.11 µM is above 99%.
Still for that read-out and setting: in the case of `CC(=O)Nc1cc(-c2cnc(Cl)c(NS(=O)(=O)c3ccc(F)cc3Cl)c2C)ccn1` [Compound I-290, N-(6-chloro-5-{[(2-chloro-4-fluorophenyl)sulfonyl]amino}-4-methyl-3,4′-bipyridin-2′-yl)acetamide] it was above 99%.

As usually defined, the IC50 is the point on the concentration scale where inhibition reaches its midpoint. One may read the inhibition as the relative decrease from the control value, in per cent.

Values taken from patent US9802960B2 (MILLENNIUM PHARMACEUTICALS, INC., priority 2014, dated 2017).
